Read-outs that look alike come from different tables or passages of the source.
Experiments:
[1] = biological target: T1, Keap1 Kelch domain (321-609) / TAMRA-labeled 16mer NRF2 peptide (ETGE motif) (Homo sapiens, UniProt Q14145); assay: NRF2-Keap1 FP Assay (Keap1 Kelch fluorescence polarization); assay type: binding; details: 20 nM Keap1 (321-609), 8 nM Tamra labeled peptide
T1 construct: the Kelch domain (321-609) of Keap1 is used
In short: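 Compound dilutions (3-fold) were incubated 1 hr at room temperature with 20 nM Keap1 Kelch (321-609) and 8 nM TAMRA-labeled ETGE 16mer peptide. Buffer was 50 mM Tris pH 8.0, 100 mM NaCl, 5 mM MgCl2, 1 mM DTT, 2 mM CHAPS, 0.005% BSA. Fluorescence polarization (mP) was normalized to controls and fitted with a four-parameter equation to give pIC50.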

[2] = system: NQO1 specific enzyme activity in BEAS-2B cells (marker for NRF2 activation); assay: BEAS-2B NQO1 MTT Assay; assay type: cell-based; details: Homo sapiens, compound incubated 48 hours, read-out: EC50 (NQO1 specific enzyme activity induction)
In short: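 BEAS-2B cells treated with compound for 48 h at 37 °C, then lysed; NQO1 activity in lysates measured kinetically by MTT reduction at A570 over 30 min. pEC50 from 3-parameter fit of ΔOD/min versus log concentration; lysate also taken for Cell Titer Glo.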

T1 sequence (Q14145 321-609): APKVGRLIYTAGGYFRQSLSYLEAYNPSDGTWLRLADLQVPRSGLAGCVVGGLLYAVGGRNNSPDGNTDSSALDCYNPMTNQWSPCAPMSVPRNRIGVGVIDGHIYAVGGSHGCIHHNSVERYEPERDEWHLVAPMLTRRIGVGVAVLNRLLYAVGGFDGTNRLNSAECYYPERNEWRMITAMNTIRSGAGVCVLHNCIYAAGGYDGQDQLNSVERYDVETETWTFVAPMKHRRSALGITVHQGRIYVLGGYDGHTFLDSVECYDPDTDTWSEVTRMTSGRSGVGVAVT

IC50 [1] [nM]	Structure (SMILES)	EC50 ([2]; BEAS-2B, 48 h) [nM]	EC50 [2] [nM]
10 to 100	CCC[C@@H]1CCCCN1C(=O)c1cccc(-c2cccc(-n3ncc(C(=O)O)c3[C@@H]3C[C@H]3c3cn(C)nn3)c2)c1 [Example 51h, 5-[(1R,2R)-2-(1-methyl-1H-1,2,3-triazol-4-yl)cyclopropyl]-1-(3-{3-[(2R)-2-propylpiperidine-1-carbonyl]phenyl}phenyl)-1H-pyrazole-4-carboxylic Acid]	10 to 100	
10 to 100	CCC[C@@H]1CCCCN1C(=O)c1cncc(-c2cccc(-n3ncc(C(=O)O)c3C3CC3c3cn(C)nn3)c2)c1 (stereo partly drawn) [Example 197, 5-(2-(1-Methyl-1H-1,2,3-triazol-4-yl)cyclopropyl)-1-(3-(5-((R)-2-propylpiperidine-1-carbonyl)pyridin-3-yl)phenyl)-1H-pyrazole-4-carboxylic acid]	1000 to 10000	
10 to 100	CCCC1CCCCN1C(=O)c1cccc(-c2cccc(-n3ncc(C(=O)O)c3C3CC3c3cn(C)nn3)c2)c1 (centres unmarked) [Example 42, 5-[2-(1-methyl-1H-1,2,3-triazol-4-yl)cyclopropyl]-1-{3-[3-(2-propylpiperidine-1-carbonyl)phenyl]phenyl}-1H-pyrazole-4-carboxylic Acid]	100 to 1000	
10 to 100	Cn1cc(C2CC2c2c(C(=O)O)cnn2-c2cccc(-c3cccc(C(=O)CC4CCCCC4)c3)c2)nn1 (centres unmarked) [Example 215, 1-(3′-(2-Cyclohexylacetyl)-[1,1′-biphenyl]-3-yl)-5-(2-(1-methyl-1H-1,2,3-triazol-4-yl)cyclopropyl)-1H-pyrazole-4-carboxylic Acid]		100 to 1000
100 to 1000	Cn1cc([C@H]2C[C@@H]2c2c(C(=O)O)cnn2-c2cccc(-c3cccc(OC[C@H]4CC[C@H](Cl)CC4)c3)c2)nn1 (racemic) [Example 185, 1-(3′-((4-Chlorocyclohexyl)methoxy)-[1,1′-biphenyl]-3-yl)-5-((1,2-trans)-2-(1-methyl-1H-1,2,3-triazol-4-yl)cyclopropyl)-1H-pyrazole-4-carboxylic Acid]		10 to 100
10 to 100	Cn1cc(C2CC2c2c(C(=O)O)cnn2-c2cccc(-c3cccc(SCC4CCCCC4)c3)c2)nn1 (centres unmarked) [Example 179, 1-(3′-((Cyclohexylmethyl)thio)-[1,1′-biphenyl]-3-yl)-5-(2-(1-methyl-1H-1,2,3-triazol-4-yl)cyclopropyl)-1H-pyrazole-4-carboxylic acid]		1 to 10
10 to 100	O=C(O)c1cnn(-c2cccc(-c3cccc(C(=O)N(CC4CCCC4)CC4CC4)c3F)c2)c1C1CC1 [Example 14, 1-(3-{3-[(Cyclopentylmethyl)(cyclopropylmethyl)carbamoyl]-2-fluorophenyl}phenyl)-5-cyclopropyl-1H-pyrazole-4-carboxylic Acid]		100 to 1000
100 to 1000	Cn1cc(C2CC2c2c(C(=O)O)cnn2-c2cccc(-c3cccc(C(O)CC4CCCCC4)c3)c2)nn1 (centres unmarked) [Example 217, 1-(3′-(2-Cyclohexyl-1-hydroxyethyl)-[1,1′-biphenyl]-3-yl)-5-(2-(1-methyl-1H-1,2,3-triazol-4-yl)cyclopropyl)-1H-pyrazole-4-carboxylic acid]		100 to 1000
10 to 100	CCC[C@@H]1CCCCN1C(=O)c1cccc(-c2cc(Cl)cc(-n3ncc(C(=O)O)c3C3CC3c3cn(C)nn3)c2)c1 (stereo partly drawn) [Example 160, 1-(5-Chloro-3′-((R)-2-propylpiperidine-1-carbonyl)-[1,1′-biphenyl]-3-yl)-5-(2-(1-methyl-1H-1,2,3-triazol-4-yl)cyclopropyl)-1H-pyrazole-4-carboxylic Acid Compound with 2,2,2-trifluoroacetic Acid (1:1)]	100 to 1000	
10 to 100	Cn1cc(C2CC2c2c(C(=O)O)cnn2-c2cccc(-c3cccc(OCC4CCCCC4)c3)c2)nn1 (centres unmarked) [Example 164, 1-(3′-(Cyclohexylmethoxy)-[1,1′-biphenyl]-3-yl)-5-(2-(1-methyl-1H-1,2,3-triazol-4-yl)cyclopropyl)-1H-pyrazole-4-carboxylic acid]		10 to 100
